Experimental data as given in patent US11866416B2, “Streptococcus mutans glucosyl transferase inhibitors for dental caries therapy” (UAB Research Foundation, priority 2018, dated 2024).

Key:
GtfC = GtfC (Streptococcus mutans serotype c (strain ATCC 700610 / UA159), UniProt P13470); experiment: Zymographic assay on GtfC from S. mutans GtfBD mutants; format: biochemical; conditions: 25 μM
Description: FIGS. 3A-3C show Gtf patterns of S. mutans UA159 and its mutant variants. Culture supernatants were prepared from S. mutans UA159 and gtf double mutants, and then subjected to SDS-PAGE analysis with equivalent amount of proteins in each lane. […] The intensity of the bands were quantified using ImageJ in comparison to DMSO.
Supernatants containing Gtf proteins prepared from S. mutans bacterial cultures were subjected to SDS-PAGE analysis and zymographic assay. […] The same amount of the protein sample was used as controls and visualized by protein staining (FIG. 3A, top panels). The lead compounds were also tested against individual Gtfs using supernatant proteins harvested from cultures of various double mutants.
Construction of S. mutans Gtfs mutants. GtfB, GtfC single mutant, and GtfBC double mutant in which gtf was replaced with a kanamycin resistance cassette, aphA3 (encoding an aminoglycoside phosphotransferase), were gifts from Dr. Robert Burne's Laboratory, University of Florida, Gainesville, Fla. The GtfD mutant was constructed by an overlapping PCR ligation strategy using an erythromycin resistance cassette isolated from the IFDC2 cassette (Xie, Z., Okinaga, T., Qi, F., Zhang, Z. & Merritt, J. Cloning-independent and counterselectable markerless mutagenesis system in Streptococcus mutans. Appl Environ Microbiol 77, 8025-8033 (2011)).

GtfC catalytic domain = GtfC catalytic domain (Streptococcus mutans serotype c (strain ATCC 700610 / UA159), UniProt P13470); experiment: OctetRed96 binding kinetics, GtfC
Excerpt: To determine if the inhibition is attributed by the binding of the lead compound to the enzymes, the OctetRed96 system was used to characterize protein-small molecule binding kinetics. The his-tagged catalytic domains of GtfB and GtC were immobilized separately onto an anti-penta-HIS (HIS1K) biosensor which consists of high affinity, high specificity penta-his antibody pre-immobilized on a fiber optic biosensor. This sensor was then exposed to varying concentrations of #G43.
Expression and purification of GtfB and GtfC catalytic domains. The DNA fragment coding for either GtfB catalytic (residues 268 aa-1074 aa) or GtfC-catalytic (residues 295 aa-1103 aa) was PCR amplified with primer sets of GtfB-BamH1-F and GtfB-Xho1-R, GtfC-BamH1-F and GtfC-Xhol1-R respectively using S. mutans genomic DNA as a template. Each amplified fragment was cloned into pET-sumo vector respectively and transformed in Escherichia coli BL21(DE3). […]
Octet Red analysis. […] The rate constant, KD, was determined using the Octet® Red96 system (ForteBio, Menlo Park, Calif.). […] The proteins were captured on dip-and-read Anti-Penta-HIS (HIS1K) Biosensor. […] The binding of #G43 at 3-fold serial dilutions in phosphate buffer from 200, 66.6, 22.2, 7.4, 2.5 to 0 μM was assessed. […]
OctetRed analysis. […] Sensorgrams and the accuracy of the analysis was calculated using the ForteBio OctetRed analysis software (ForteBio, Menlo Park, Calif.).

S. sanguinis = experiment: Growth of commensal S. sanguinis; format: cell-based, Streptococcus sanguinis
Description: (§1) Cell viability of S. mutans, S. gordonii, S. sanguinis, Aggregatibacter actinomycetemcomitans and Actinomyces. […] The number of colony-forming units (CFU) per milliliter of each sample treated with selected compounds at different concentrations was enumerated after incubation for 24 h at 37° C. and compared to the values obtained from the DMSO control group. Overnight broth cultures were transferred by 1:50 dilutions into fresh THB medium and were allowed to grow until mid-exponential phase (OD470 nm 0.6) before transfer to 96-well plates containing desired concentration of the compound. After 16 h incubation, bacterial growth was measured at OD470, and normalized to the DMSO control (100%).
(§2) Cell viability of S. mutans and commensal S. gordonii and S. sanguinis. Effects of lead small molecules on cell viability were examined. The number of colony-forming units (CFU) per milliliter for each compound at different concentrations was determined after incubation for 24 h at 37° C. and compared to the values obtained from the DMSO control group.
(§3) Cell viability of S. mutans and commensal S. gordonii and S. sanguinis. […] DMSO served as a control group and provided a relative comparison for the number of colony-forming units (CFU) per milliliter for each compound at different concentrations was determined after incubation for 24 h at 37° C. The final concentration of DMSO used in the assays was 1%.

S. gordonii = experiment: Growth of commensal S. gordonii; format: cell-based, Streptococcus gordonii
Description: as §1, §2, §3

S. sanguinis biofilm = experiment: Mono-species biofilm of S. sanguinis; format: cell-based, Streptococcus sanguinis; conditions: up to 200 μM
Description: Growth of commensal and dual-species biofilms. Overnight broth cultures were transferred by 1:50 dilutions into fresh THB medium and were allowed to grow until mid-exponential phase (OD470 nm=0.6) before transfer to 96-well plates. For mono-species biofilms, 1:100 dilution of the individual cultures was added to the 96-well plate containing the desired concentration of compound or DMSO. After incubation for 16 h, the biofilms were gently washed with PBS in triplicate and the biofilms were quantified with crystal violet staining. For dual-species biofilms, 1:100 dilution of S. mutans was used and 1:10 dilution of the commensal species (S. sanguinius or S. gordonii) was used as inoculum to seed the 96-well plate containing the desired concentration of compound or DMSO. After incubation for 16 h, the biofilms were scratched off with a sterile spatula and suspended in 100 μL of PBS, the biofilm samples were vortexed. To determine the total number of viable bacterial cells (colony forming units, CFU), 100 μl from dispersed, 16 h biofilms were serially diluted in potassium phosphate buffer and plated in duplicate on BAP. The commensal species could be differentiated from S. mutans due to their characteristic green rings.

GtfC catalytic domain, sequence (P13470 295-1103 limits assumed): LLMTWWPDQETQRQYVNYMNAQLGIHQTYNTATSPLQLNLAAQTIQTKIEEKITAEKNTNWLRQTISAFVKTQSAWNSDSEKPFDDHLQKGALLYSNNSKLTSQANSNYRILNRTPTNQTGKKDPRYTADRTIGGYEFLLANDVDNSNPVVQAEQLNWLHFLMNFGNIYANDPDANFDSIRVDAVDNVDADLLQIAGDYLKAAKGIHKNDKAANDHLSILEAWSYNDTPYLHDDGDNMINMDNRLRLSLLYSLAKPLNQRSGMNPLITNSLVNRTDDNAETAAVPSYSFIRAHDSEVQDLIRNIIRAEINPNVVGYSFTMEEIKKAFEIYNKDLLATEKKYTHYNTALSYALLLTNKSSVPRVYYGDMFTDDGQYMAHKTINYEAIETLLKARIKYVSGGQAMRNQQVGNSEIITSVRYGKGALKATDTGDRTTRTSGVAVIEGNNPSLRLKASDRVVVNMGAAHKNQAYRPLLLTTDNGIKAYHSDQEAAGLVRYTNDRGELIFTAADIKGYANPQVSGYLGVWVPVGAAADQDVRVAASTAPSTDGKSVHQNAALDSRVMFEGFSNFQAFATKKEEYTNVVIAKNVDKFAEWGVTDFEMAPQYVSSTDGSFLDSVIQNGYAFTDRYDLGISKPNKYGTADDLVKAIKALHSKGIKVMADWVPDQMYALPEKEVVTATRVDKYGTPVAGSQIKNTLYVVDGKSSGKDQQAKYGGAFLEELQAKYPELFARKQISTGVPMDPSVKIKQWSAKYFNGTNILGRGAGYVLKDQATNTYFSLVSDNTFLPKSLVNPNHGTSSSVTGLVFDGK
GtfC, sequence (P13470 35-1455 limits assumed): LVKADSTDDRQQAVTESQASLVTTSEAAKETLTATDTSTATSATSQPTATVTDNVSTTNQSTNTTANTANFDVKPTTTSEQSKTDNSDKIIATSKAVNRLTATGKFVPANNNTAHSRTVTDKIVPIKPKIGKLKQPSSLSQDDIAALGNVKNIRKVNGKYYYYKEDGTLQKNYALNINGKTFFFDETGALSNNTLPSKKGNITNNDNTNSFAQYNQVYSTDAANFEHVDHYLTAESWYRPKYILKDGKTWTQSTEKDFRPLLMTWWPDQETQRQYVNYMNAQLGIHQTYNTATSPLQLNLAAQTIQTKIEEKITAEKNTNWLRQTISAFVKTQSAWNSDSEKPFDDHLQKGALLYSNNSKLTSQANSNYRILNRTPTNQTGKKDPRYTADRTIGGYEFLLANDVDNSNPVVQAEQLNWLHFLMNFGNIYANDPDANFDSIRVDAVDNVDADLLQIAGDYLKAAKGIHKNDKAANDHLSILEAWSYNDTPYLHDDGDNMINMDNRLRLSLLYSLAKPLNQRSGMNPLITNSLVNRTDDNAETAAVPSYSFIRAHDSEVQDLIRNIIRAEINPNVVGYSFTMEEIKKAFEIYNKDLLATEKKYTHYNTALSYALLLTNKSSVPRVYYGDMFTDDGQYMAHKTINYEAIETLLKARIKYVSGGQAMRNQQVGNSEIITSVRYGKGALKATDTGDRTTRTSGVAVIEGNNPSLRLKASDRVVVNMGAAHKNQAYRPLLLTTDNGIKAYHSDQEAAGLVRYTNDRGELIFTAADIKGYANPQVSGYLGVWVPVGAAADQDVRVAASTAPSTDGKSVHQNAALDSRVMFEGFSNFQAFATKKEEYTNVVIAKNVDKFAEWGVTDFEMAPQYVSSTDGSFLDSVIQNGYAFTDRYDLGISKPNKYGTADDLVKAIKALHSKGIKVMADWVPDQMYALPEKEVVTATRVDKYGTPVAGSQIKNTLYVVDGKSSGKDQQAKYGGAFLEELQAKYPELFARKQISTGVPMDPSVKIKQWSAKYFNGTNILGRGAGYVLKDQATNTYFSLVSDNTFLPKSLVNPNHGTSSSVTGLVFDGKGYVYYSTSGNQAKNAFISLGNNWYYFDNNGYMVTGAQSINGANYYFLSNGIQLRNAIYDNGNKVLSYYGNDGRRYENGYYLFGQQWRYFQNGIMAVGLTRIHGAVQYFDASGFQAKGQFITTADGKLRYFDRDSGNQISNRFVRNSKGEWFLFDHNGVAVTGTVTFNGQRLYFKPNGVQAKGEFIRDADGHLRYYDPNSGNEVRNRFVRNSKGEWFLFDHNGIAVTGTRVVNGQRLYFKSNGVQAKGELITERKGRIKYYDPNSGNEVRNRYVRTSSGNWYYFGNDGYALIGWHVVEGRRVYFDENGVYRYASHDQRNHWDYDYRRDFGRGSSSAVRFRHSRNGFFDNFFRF

NC(=O)c1ccccc1NC(=O)c1cc2cc([N+](=O)[O-])ccc2s1 [#G43]
inhibition of GtfC activity (ImageJ band intensity) (GtfC): 80%
Kd (GtfC catalytic domain; 1:1 binding model): 0.0469 µM
effect on S. sanguinis growth (S. sanguinis; 200 μM, OD470): did not have any effect on bacterial growth
effect on S. gordonii growth (S. gordonii; 200 μM, OD470): did not have any effect on bacterial growth
S. sanguinis biofilm formation versus control (S. sanguinis biofilm): No significant difference

Oc1cc(O)cc(/C=C/c2ccc(O)c(O)c2)c1 [Piceatannol]
decrease of S. sanguinis cell density (S. sanguinis; 400 μM): 15-18%
inhibition at 52 µM (S. sanguinis; Streptococcus sanguinis, at 52 μM, read-out: growth of S. sanguinis inhibited): < 10%
decrease of S. gordonii cell density (S. gordonii; 400 μM): 15-18%
inhibition at 52 µM (S. gordonii; Streptococcus gordonii, at 52 μM, read-out: growth of S. gordonii inhibited): < 10%

Oc1ccc(/C=C/c2cc(O)cc(O)c2)cc1 [Resveratrol, reference compound]
Kd (GtfC catalytic domain; stilbenes, 1:1 binding mode): 510 µM
